# Assay results from US20090252788A1, “Balsalazide formulations and manufacture and use thereof” (Salix Pharmaceuticals, Inc., priority 2005, published 2009).
# Assay: Particle size distribution and specific surface area (LS 200, Small Volume Module, Fraunhofer optical model)
# Assay type: physicochemical
# Conditions: for Particle size, % < 10: 10% of volume below this size; for Particle size, % < 25: 25% of volume below this size; for Particle size, % < 50: 50% of volume below this size; for Particle size, % < 75: 75% of volume below this size; for Particle size, % < 100: 100% of volume below this size; for Mean particle size (volume statistics, arithmetic) / Median particle size (volume statistics, arithmetic) / Specific Surf. Area: calculations from 0.375 μm to 2000 μm
# Source text: FIG. 2 depicts and the data below tabulate for Sample 1 the arithmetic statistics describing surface area, particle size, and cumulative volume characteristics for one lot of drug substance (feed material). The particle size distribution for this lot is depicted in FIG. 2.
# Table 11 A-D tabulates the arithmetic statistics describing surface area, particle size, and cumulative volume characteristics for three lots of drug substance (feed material). The particle size distributions for these lots are depicted in FIG. 7. […] Of these three lots of drug substance, 100% of the particles are less than 83.89 μm, 373.1 μm, and 69.61 μm, respectively.
# Table 12 tabulates the arithmetic statistics describing surface area, particle size, and cumulative volume characteristics for three lots of drug product (encapsulated granulation samples) that were manufactured with the three lots of drug substance (feed material) as depicted in FIG. 7. […] Of these three lots of drug product, 100% of the granules are less than 1660 μm, 2000 μm, and 1512 μm, respectively. The particle size distributions for these three lots are depicted in FIG. 8.
# [1] = Particle Diameter (Lower) 0.375 μm
# [2] = Particle Diameter (Lower) 0.656 μm
# [3] = Particle Diameter (Lower) 1.149 μm
# [4] = Particle Diameter (Lower) 2.011 μm
# [5] = Particle Diameter (Lower) 3.519 μm
# [6] = Particle Diameter (Lower) 6.158 μm
# [7] = Particle Diameter (Lower) 10.78 μm
# [8] = Particle Diameter (Lower) 18.86 μm
# [9] = Particle Diameter (Lower) 33.01 μm
# [10] = Particle Diameter (Lower) 57.77 μm
# [11] = Particle Diameter (Lower) 101.1 μm
# [12] = Particle Diameter (Lower) 176.9 μm
# [13] = Particle Diameter (Lower) 309.6 μm
# [14] = Particle Diameter (Lower) 541.9 μm
# [15] = Particle Diameter (Lower) 948.3 μm
# [16] = Particle Diameter (Lower) 1660 μm
Compound,Cum. < Volume % [1] [%],Diff. Volume % [1] [%],Cum. < Volume % [2] [%],Diff. Volume % [2] [%],Cum. < Volume % [3] [%],Diff. Volume % [3] [%],Cum. < Volume % [4] [%],Diff. Volume % [4] [%],Cum. < Volume % [5] [%],Diff. Volume % [5] [%],Cum. < Volume % [6] [%],Diff. Volume % [6] [%],Cum. < Volume % [7] [%],Diff. Volume % [7] [%],Diff. Volume % [8] [%],Cum. < Volume % [9] [%],Diff. Volume % [9] [%],Cum. < Volume % [10] [%],Diff. Volume % [10] [%],Cum. < Volume % [11] [%],also measured
O=C([O-])CCNC(=O)c1ccc(/N=N/c2ccc(O)c(C(=O)[O-])c2)cc1.[Na+].[Na+] [Sample 4],0,0.61,0.61,1.55,2.17,2.46,4.62,4.37,8.99,8.23,17.2,14.1,31.3,21.2,25.5,78.0,17.2,95.3,3.43,98.7,"Particle size, % < 10: 3.851 μm; Particle size, % < 25: 8.660 μm; Particle size, % < 50: 17.82 μm; Particle size, % < 75: 30.86 μm; Particle size, % < 100: 309.6 μm; Cum. < Volume % [8]: 52.5%; Diff. Volume % [11]: 1.08%; Cum. < Volume % [12]: 99.8%; Diff. Volume % [12]: 0.24%; Cum. < Volume % [13]: 100%; Diff. Volume % [13]: 0%; Cum. < Volume % [14]: 100%; Diff. Volume % [14]: 0%; Cum. < Volume % [15]: 100%; Diff. Volume % [15]: 0%; Cum. < Volume % [16]: 100%; Diff. Volume % [16]: 0%; Mean particle size (volume statistics, arithmetic): 22.93 μm; Median particle size (volume statistics, arithmetic): 17.82 μm; Specific Surf. Area: 7553 cm^2/mL"
O=C([O-])CCNC(=O)c1ccc(/N=N/c2ccc(O)c(C(=O)[O-])c2)cc1.[Na+].[Na+] [Sample 3],0,2.13,2.13,4.92,7.05,6.97,14.0,12.1,26.1,20.4,46.4,25.7,72.2,19.8,7.20,99.2,0.79,99.997,0.0029,100,"Particle size, % < 10: 1.498 μm; Particle size, % < 25: 3.385 μm; Particle size, % < 50: 6.679 μm; Particle size, % < 75: 11.50 μm; Particle size, % < 100: 63.41 μm; Cum. < Volume % [8]: 92.0%; Diff. Volume % [11]: 0%; Cum. < Volume % [12]: 100%; Diff. Volume % [12]: 0%; Cum. < Volume % [13]: 100%; Diff. Volume % [13]: 0%; Cum. < Volume % [14]: 100%; Diff. Volume % [14]: 0%; Cum. < Volume % [15]: 100%; Diff. Volume % [15]: 0%; Cum. < Volume % [16]: 100%; Diff. Volume % [16]: 0%; Mean particle size (volume statistics, arithmetic): 8.399 μm; Median particle size (volume statistics, arithmetic): 6.679 μm; Specific Surf. Area: 16802 cm^2/mL"
O=C([O-])CCNC(=O)c1ccc(/N=N/c2ccc(O)c(C(=O)[O-])c2)cc1.[Na+].[Na+] [Sample 1],0,2.66,2.66,6.09,8.74,8.50,17.2,14.4,31.6,22.8,54.5,25.3,79.8,15.8,4.34,99.97,0.030,100,0,100,"Particle size, % < 10: 1.266 μm; Particle size, % < 25: 2.827 μm; Particle size, % < 50: 5.584 μm; Particle size, % < 75: 9.624 μm; Particle size, % < 100: 43.67 μm; Cum. < Volume % [8]: 95.6%; Diff. Volume % [11]: 0%; Cum. < Volume % [12]: 100%; Diff. Volume % [12]: 0%; Cum. < Volume % [13]: 100%; Diff. Volume % [13]: 0%; Cum. < Volume % [14]: 100%; Diff. Volume % [14]: 0%; Cum. < Volume % [15]: 100%; Diff. Volume % [15]: 0%; Cum. < Volume % [16]: 100%; Diff. Volume % [16]: 0%; Mean particle size (volume statistics, arithmetic): 6.967 μm; Median particle size (volume statistics, arithmetic): 5.584 μm; Specific Surf. Area: 19389 cm^2/mL"
O=C(O)CCNC(=O)c1ccc(/N=N/c2ccc(O)c(C(=O)O)c2)cc1 [Feed Powder Sample A (#35.$01)],0,1.82,1.82,3.88,5.70,4.90,10.6,9.30,19.9,18.4,38.3,25.7,63.9,21.8,10.2,95.9,3.32,99.3,0.75,100,"Particle size, % < 10: 1.899 μm; Particle size, % < 25: 4.253 μm; Particle size, % < 50: 8.031 μm; Particle size, % < 75: 13.88 μm; Particle size, % < 100: 83.89 μm; Cum. < Volume % [8]: 85.7%; Diff. Volume % [11]: 0%; Cum. < Volume % [12]: 100%; Diff. Volume % [12]: 0%; Cum. < Volume % [13]: 100%; Mean particle size (volume statistics, arithmetic): 10.85 μm; Median particle size (volume statistics, arithmetic): 8.031 μm; Specific Surf. Area: 14230 cm^2/mL"
O=C(O)CCNC(=O)c1ccc(/N=N/c2ccc(O)c(C(=O)O)c2)cc1 [Feed Powder Sample C (#53.$02)],0,1.96,1.96,4.37,6.33,6.03,12.4,11.3,23.7,20.6,44.2,26.7,70.9,20.7,7.30,98.9,1.07,99.99,0.013,100,Diff. Volume % [11]: 0%; Cum. < Volume % [12]: 100%; Diff. Volume % [12]: 0%
O=C(O)CCNC(=O)c1ccc(/N=N/c2ccc(O)c(C(=O)O)c2)cc1 [Feed Powder Sample B (#41.$02)],0,0.64,0.64,1.50,2.15,1.94,4.08,3.16,7.24,6.98,14.2,13.9,28.1,21.3,23.1,72.5,17.0,89.5,7.10,96.6,Cum. < Volume % [8]: 49.5%; Diff. Volume % [11]: 2.65%; Cum. < Volume % [12]: 99.3%; Diff. Volume % [12]: 0.73%
O=C([O-])CCNC(=O)c1ccc(/N=N/c2ccc(O)c(C(=O)[O-])c2)cc1.[Na+].[Na+] [Sample 2],0,2.91,2.91,6.59,9.50,9.37,18.9,16.1,35.0,24.3,59.3,24.1,83.4,12.6,3.78,99.8,0.23,100,0,100,"Particle size, % < 10: 1.192 μm; Particle size, % < 25: 2.586 μm; Particle size, % < 50: 5.044 μm; Particle size, % < 75: 8.715 μm; Particle size, % < 100: 47.94 μm; Cum. < Volume % [8]: 96.0%; Diff. Volume % [11]: 0%; Cum. < Volume % [12]: 100%; Diff. Volume % [12]: 0%; Cum. < Volume % [13]: 100%; Diff. Volume % [13]: 0%; Cum. < Volume % [14]: 100%; Diff. Volume % [14]: 0%; Cum. < Volume % [15]: 100%; Diff. Volume % [15]: 0%; Cum. < Volume % [16]: 100%; Diff. Volume % [16]: 0%; Mean particle size (volume statistics, arithmetic): 6.503 μm; Median particle size (volume statistics, arithmetic): 5.044 μm; Specific Surf. Area: 20709 cm^2/mL"
